Data on two compounds can be found in patent EP0247507A2, “Composition for transdermal therapeutical systems of high-ceiling diuretics, and process for producing it” (priority 1986, dated 1987).

This assay relates to Ratte. The experiment in a line: Salidiuretic effect in the rat (urine volume, Na, K, Cl excretion) after percutaneous (TTS) or oral administration. Format: in vivo. The text has this: Die folgenden Beispiele sollen die Erfindung erläutern. Die Zusammensetzungen wurden durch Mischen der Wirkstoffe mit der Grundlage in einem Rührwerk mit eingebautem Homogenisator erhalten. Als transdermale therapeutische Systeme wurden aus dem deutschen Gebrauchsmuster 84 07 036 bekannte Pflasterpackungen verwendet.

The mark [1] stands for this setting: Piretanid 20 mg/rat p.o. (suspended in 2 % aqueous starch solution), collection period 1 - 5 h, n = 2.
Setting [2] is: Piretanid 20 mg/rat p.o. (suspended in 2 % aqueous starch solution), collection period 1 - 24 h, n = 2.
The mark [3] stands for this setting: Piretanid 20 mg/rat p.o. (suspended in 2 % aqueous starch solution), collection period 6 - 24 h, n = 2.
Setting [4] is: Furosemid 5 mg/rat p.o. (suspended in 2 % aqueous starch solution), collection period 1 - 5 h, n = 4.
[5] abbreviates: Furosemid 5 mg/rat p.o. (suspended in 2 % aqueous starch solution), collection period 1 - 24 h, n = 4.
Where [6] appears, read: Furosemid 5 mg/rat p.o. (suspended in 2 % aqueous starch solution), collection period 6 - 24 h, n = 4.

Under setting [1], `NS(=O)(=O)c1cc(C(=O)O)cc(N2CCCC2)c1Oc1ccccc1` [Piretanid, 4-Phenoxy-3-(1-pyrrolidinyl)-5-sulfamoylbenzoesäure] registered a Chlorid of 8.36 mmol/kg, a Kalium of 1.92 mmol/kg, a Natrium of 7.07 mmol/kg and a Urin of 65.0 mL/kg. Under setting [2], the Chlorid is given as 11.36 mmol/kg, the Kalium is recorded as 11.67 mmol/kg, the Natrium amounted to 11.78 mmol/kg and the Urin is 112.1 mL/kg. Under setting [3], the Chlorid came out at 3.00 mmol/kg, the Kalium came out at 9.75 mmol/kg, the Natrium is listed as 4.71 mmol/kg and the Urin came out at 47.1 mL/kg.

Under setting [4], `NS(=O)(=O)c1cc(C(=O)O)c(NCc2ccco2)cc1Cl` [Furosemid, 4-Chlor-N-furfuryl-5-sulfamoylanthranilsäure] had a Chlorid of 6.10 ± 0.62 mmol/kg, a Kalium of 1.40 ± 0.16 mmol/kg, a Natrium of 4.81 ± 0.75 mmol/kg and a Urin of 47.8 ± 3.5 mL/kg. Besides, under setting [5], the Chlorid is reported as 6.59 ± 0.61 mmol/kg, the Kalium came out at 3.88 ± 0.88 mmol/kg, the Natrium was found to be 6.03 ± 0.75 mmol/kg and the Urin was found to be 59.7 ± 6.2 mL/kg. Under setting [6], this compound had a Chlorid of 0.49 ± 0.11 mmol/kg, a Kalium of 2.48 ± 0.79 mmol/kg, a Natrium of 1.22 ± 0.21 mmol/kg and a Urin of 11.9 ± 3.6 mL/kg.
